Experimental findings from publication PMC6663621 (Cancer, 2019) are described below.

A short description of series [1]: clinical. The settings on record: human, plasma.
Setting [2] is: plasma, Cohort 1, CC-486 dose 200 mg oral, Cycle 1 Day 1, actual values (n=2).
Setting [3] is: plasma, Cohorts 2 and 3, CC-486 dose 300 mg oral, Cycle 1 Day 1, mean ± SD.

“And” between values parts separate entries of the source, which are not always exact repeats. Identical values can stand only once. Like-named read-outs stand apart in the source and are kept apart here.

A word on the Tmax: it is the time from dosing to the highest level. The term Cmax denotes the maximum level reached in the sampled fluid or tissue. Usually clearance stands for the rate of elimination divided by the concentration. Higher therefore signals a high capacity for elimination.

For the compound `Nc1ncn([C@@H]2O[C@H](CO)[C@@H](O)[C@H]2O)c(=O)n1` [5-azacitidine], the “difference in dose-normalized exposure, apparent clearance, apparent volume of distribution or half-life” value (200 or 300 mg CC-486) is listed as “no difference”. Also, under setting [2], the AUCINF is 538 ng·h/mL; the Cl/F is 372 L/h and 373 L/h; the V/F is 293 L and 319 L; the t1/2 is 0.59 h. Also, under setting [3], the Cl/F is on record as 922 ± 892 (10) L/h and the V/F is given as 731 ± 557 (10) L. In series [1] (oral), the time of peak concentration (Tmax) is around 1 h. Moreover, in series [1] (po, 200 mg), the Cmax stood at 324 ± 157 ng/mL and the time of peak concentration (Tmax) came out at 1 h. For the same compound, in series [1] (po, 300 mg), the Cmax is 226 ± 130 ng/mL and the Tmax came out at 1.08 h.

For `C/C=C1\NC(=O)[C@H]2CSSCC/C=C/[C@H](CC(=O)N[C@H](C(C)C)C(=O)N2)OC(=O)[C@H](C(C)C)NC1=O` [romidepsin], in series [1] (iv, 8 mg/m2), the highest concentration (Cmax) is 455 ± 255 ng/mL, the Tmax turned out to be 4 h and the clearance is 178 mL/min.
